Experimental data from publication PMC9025901, “New Genetic Bomb Trigger: Design, Synthesis, Molecular Dynamics Simulation, and Biological Evaluation of Novel BIBR1532-Related Analogs Targeting Telomerase against Non-Small Cell Lung Cancer” (Pharmaceuticals, 2022).

Columns and labels:
[1] = target: T1, telomerase inside living cancer cells A549 (Homo sapiens, UniProt O14746); assay: Living-cell TRAP assay, A549; assay type: cell-based; conditions: percent of control cells, 10 µM, 48 h
T1 construct: host or cells: A549
Description: (§1) The Telomeric Repeat Amplification Protocol (TRAP) [61] was used to evaluate the activity of telomerase, with some changes that we have previously described [62, 63]. A549 cells (human epithelial cell lung carcinoma, ATCC, Manassas, VA) were lysed in (10 mM) Tris-HCl, pH 7.5, (1 mM) EGTA, (1 mM) MgCl2, (5 mM) 2-mercaptoethanol, (0.1 mM) PMSF, (0.5%) CHAPS, and (10%) glycerol (Sigma-Aldrich, St. Louis, MO, USA) and centrifugation. The supernatants were kept at -80 °C. The BCA-1 Protein Assay Kit was used to assess the protein concentration in cell extracts (Sigma-Aldrich, St. Louis, MO, USA). […] To inactivate telomerase, the cells were elongated for 30 min at 37 °C and 10 min at 96 °C. Copy CX-primer was added to the elongation mixture along with 0.1 μL ([NT]) and 2.5 units Taq-polymerase, followed by the following PCR: 94 °C for 5 min; 30 cycles of 94 °C for 30 s, 50 °C for 30 s, and 72 °C for 40 s, and 72 °C for 5 min. TBE buffer and (12%) nondenaturing PAAG electrophoresis were used to visualize the PCR product. 10 μL of each sample was placed in each well of gel comb. The gels were stained with the SYBR Green I (Invitrogen, Grand Island, NY, USA), then photographed under the UV light in ChemiDocTM XRS imaging system and analyzed with GelAnalyzer 2010.

[2] = target: T2, telomerase inside living cancer cells HCC44 (Homo sapiens, UniProt O14746); assay: Living-cell TRAP assay, HCC44; assay type: cell-based; conditions: percent of control cells, 10 µM, 48 h
T2 construct: host or cells: HCC44
Description: as §1

[3] = target: T3, telomerase inside living cancer cells NCI-H23 (Homo sapiens, UniProt O14746); assay: Living-cell TRAP assay, NCI-H23; assay type: cell-based; conditions: percent of control cells, 10 µM, 48 h
T3 construct: host or cells: NCI-H23
Description: as §1

MOLT-4 = assay: NCI-60 in vitro anticancer screening (SRB); conditions: MOLT-4, Leukemia; 10 µM, 48 h
Description: (§2) The cancer screening panel’s human tumor 60 cell lines were cultured in the RPMI 1640 medium with (5%) fetal bovine serum and (2 mM) L-glutamine. For a screening experiment, cells were injected onto 96-well microtiter plates (100 µL), with plating densities varying from 5 to 40 × 10^3 cells per well, depending on different cell lines’ doubling times. Before introducing experimental drugs, the microtiter plates were incubated overnight at 37 °C, 95% air, 5% CO2, and 100% relative humidity after cell injection. TCA was employed to keep each cell line in place overnight, resembling a computation of the cell population for every cell line at the time of the addition of the drug. The experimental drugs were chilled after solubilization in DMSO at 400 times the final maximum test concentration. At the moment of the addition of the drug, the aliquot of the frozen concentrate was thawed and diluted to twice the required final maximum concentration with the complete medium containing (50 µg/mL) gentamicin. […] The bound dye was then solubilized with a (10 mM) trizma base, and absorbance was calculated at 515 nm on an automatic reader. […] The % growth of treated cells was established using seven absorbance measurements and compared to untreated control cells [57].

RPMI-8226 = assay: NCI-60 in vitro anticancer screening (SRB); conditions: RPMI-8226, Leukemia; 10 µM, 48 h
Description: as §2

SR = assay: NCI-60 in vitro anticancer screening (SRB); conditions: Leukemia, 10 µM, 48 h
Description: as §2

EKVX = assay: NCI-60 in vitro anticancer screening (SRB); conditions: Lung cancer (NSCLC), 10 µM, 48 h
Description: as §2

HOP-62 = assay: NCI-60 in vitro anticancer screening (SRB); conditions: HOP-62, Lung cancer (NSCLC); 10 µM, 48 h
Description: as §2

NCI-H23 = assay: NCI-60 in vitro anticancer screening (SRB); conditions: NCI-H23, Lung cancer (NSCLC); 10 µM, 48 h
Description: as §2

NCI-H522 = assay: NCI-60 in vitro anticancer screening (SRB); conditions: NCI-H522, Lung cancer (NSCLC); 10 µM, 48 h
Description: as §2

HCC-2998 = assay: NCI-60 in vitro anticancer screening (SRB); conditions: HCC-2998, Colon cancer; 10 µM, 48 h
Description: as §2

HT29 = assay: NCI-60 in vitro anticancer screening (SRB); conditions: HT29, Colon cancer; 10 µM, 48 h
Description: as §2

SW-620 = assay: NCI-60 in vitro anticancer screening (SRB); conditions: SW-620, Colon cancer; 10 µM, 48 h
Description: as §2

SF-268 = assay: NCI-60 in vitro anticancer screening (SRB); conditions: SF-268, CNS cancer; 10 µM, 48 h
Description: as §2

M14 = assay: NCI-60 in vitro anticancer screening (SRB); conditions: M14, Melanoma; 10 µM, 48 h
Description: (§3) The cancer screening panel’s human tumor 60 cell lines were cultured in the RPMI 1640 medium with (5%) fetal bovine serum and (2 mM) L-glutamine. For a screening experiment, cells were injected onto 96-well microtiter plates (100 µL), with plating densities varying from 5 to 40 × 10^3 cells per well, depending on different cell lines’ doubling times. Before introducing experimental drugs, the microtiter plates were incubated overnight at 37 °C, 95% air, 5% CO2, and 100% relative humidity after cell injection. TCA was employed to keep each cell line in place overnight, resembling a computation of the cell population for every cell line at the time of the addition of the drug. The experimental drugs were chilled after solubilization in DMSO at 400 times the final maximum test concentration. At the moment of the addition of the drug, the aliquot of the frozen concentrate was thawed and diluted to twice the required final maximum concentration with the complete medium containing (50 µg/mL) gentamicin. The required final concentration of the drug (10 µM) was reached by adding 100 µL aliquots of these definite dilutions of the drug to suitable microtiter wells previously holding a medium of 100 µL. […] The bound dye was then solubilized with a (10 mM) trizma base, and absorbance was calculated at 515 nm on an automatic reader. […]

SK-MEL-2 = assay: NCI-60 in vitro anticancer screening (SRB); conditions: SK-MEL-2, Melanoma; 10 µM, 48 h
Description: as §3

SK-MEL-28 = assay: NCI-60 in vitro anticancer screening (SRB); conditions: SK-MEL-28, Melanoma; 10 µM, 48 h
Description: as §3

SK-MEL-5 = assay: NCI-60 in vitro anticancer screening (SRB); conditions: SK-MEL-5, Melanoma; 10 µM, 48 h
Description: as §3

UACC-62 = assay: NCI-60 in vitro anticancer screening (SRB); conditions: UACC-62, Melanoma; 10 µM, 48 h
Description: as §2

IGROV1 = assay: NCI-60 in vitro anticancer screening (SRB); conditions: IGROV1, Ovarian cancer; 10 µM, 48 h
Description: as §2

OVCAR-3 = assay: NCI-60 in vitro anticancer screening (SRB); conditions: OVCAR-3, Ovarian cancer; 10 µM, 48 h
Description: as §2

OVCAR-4 = assay: NCI-60 in vitro anticancer screening (SRB); conditions: OVCAR-4, Ovarian cancer; 10 µM, 48 h
Description: as §2

NCI/ADR-RES = assay: NCI-60 in vitro anticancer screening (SRB); conditions: Ovarian cancer, 10 µM, 48 h
Description: as §2

SK-OV-3 = assay: NCI-60 in vitro anticancer screening (SRB); conditions: SK-OV-3, Ovarian cancer; 10 µM, 48 h
Description: as §2

A498 = assay: NCI-60 in vitro anticancer screening (SRB); conditions: A498, Renal cancer; 10 µM, 48 h
Description: as §3

ACHN = assay: NCI-60 in vitro anticancer screening (SRB); conditions: Renal cancer, 10 µM, 48 h
Description: as §3

CAKI-1 = assay: NCI-60 in vitro anticancer screening (SRB); conditions: CAKI-1, Renal cancer; 10 µM, 48 h
Description: as §3

RXF 393 = assay: NCI-60 in vitro anticancer screening (SRB); conditions: RXF 393, Renal cancer; 10 µM, 48 h
Description: as §3

SN12C = assay: NCI-60 in vitro anticancer screening (SRB); conditions: Renal cancer, 10 µM, 48 h
Description: as §2

TK-10 = assay: NCI-60 in vitro anticancer screening (SRB); conditions: TK-10, Renal cancer; 10 µM, 48 h
Description: as §2

UO-31 = assay: NCI-60 in vitro anticancer screening (SRB); conditions: UO-31, Renal cancer; 10 µM, 48 h
Description: as §2

MCF7 = assay: NCI-60 in vitro anticancer screening (SRB); conditions: MCF7, Breast cancer; 10 µM, 48 h
Description: as §3

T-47D = assay: NCI-60 in vitro anticancer screening (SRB); conditions: Breast cancer, 10 µM, 48 h
Description: as §3

MDA-MB-468 = assay: NCI-60 in vitro anticancer screening (SRB); conditions: MDA-MB-468, Breast cancer; 10 µM, 48 h
Description: as §2

T2 sequence (O14746 whole entry): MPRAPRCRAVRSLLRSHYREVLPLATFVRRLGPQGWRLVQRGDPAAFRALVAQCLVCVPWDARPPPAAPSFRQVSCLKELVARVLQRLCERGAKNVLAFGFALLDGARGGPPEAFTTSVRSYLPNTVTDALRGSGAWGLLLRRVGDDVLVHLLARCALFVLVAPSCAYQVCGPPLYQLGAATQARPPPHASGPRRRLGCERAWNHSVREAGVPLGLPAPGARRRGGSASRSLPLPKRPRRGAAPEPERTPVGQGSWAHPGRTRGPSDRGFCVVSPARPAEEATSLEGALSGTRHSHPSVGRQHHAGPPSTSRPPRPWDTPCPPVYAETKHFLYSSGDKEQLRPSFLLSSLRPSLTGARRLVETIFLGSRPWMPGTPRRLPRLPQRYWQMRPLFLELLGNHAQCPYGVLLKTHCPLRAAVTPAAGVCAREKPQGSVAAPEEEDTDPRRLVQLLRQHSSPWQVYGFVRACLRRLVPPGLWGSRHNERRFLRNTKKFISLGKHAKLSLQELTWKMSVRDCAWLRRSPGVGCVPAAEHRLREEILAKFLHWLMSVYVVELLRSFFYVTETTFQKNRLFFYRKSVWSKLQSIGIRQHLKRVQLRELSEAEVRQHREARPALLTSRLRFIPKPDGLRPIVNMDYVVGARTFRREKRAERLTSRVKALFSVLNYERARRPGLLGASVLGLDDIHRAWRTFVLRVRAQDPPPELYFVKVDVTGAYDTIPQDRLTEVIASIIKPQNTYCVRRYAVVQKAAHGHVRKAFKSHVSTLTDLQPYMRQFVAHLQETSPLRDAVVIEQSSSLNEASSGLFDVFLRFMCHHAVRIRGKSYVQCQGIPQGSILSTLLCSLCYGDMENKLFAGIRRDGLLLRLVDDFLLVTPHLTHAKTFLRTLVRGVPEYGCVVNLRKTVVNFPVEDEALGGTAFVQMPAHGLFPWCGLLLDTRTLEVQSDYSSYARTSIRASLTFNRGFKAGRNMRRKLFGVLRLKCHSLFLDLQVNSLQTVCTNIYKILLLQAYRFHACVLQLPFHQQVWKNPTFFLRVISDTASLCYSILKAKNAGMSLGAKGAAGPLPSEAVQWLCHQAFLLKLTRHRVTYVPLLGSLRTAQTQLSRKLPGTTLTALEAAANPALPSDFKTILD
T2 sequence (O60832 whole entry partner): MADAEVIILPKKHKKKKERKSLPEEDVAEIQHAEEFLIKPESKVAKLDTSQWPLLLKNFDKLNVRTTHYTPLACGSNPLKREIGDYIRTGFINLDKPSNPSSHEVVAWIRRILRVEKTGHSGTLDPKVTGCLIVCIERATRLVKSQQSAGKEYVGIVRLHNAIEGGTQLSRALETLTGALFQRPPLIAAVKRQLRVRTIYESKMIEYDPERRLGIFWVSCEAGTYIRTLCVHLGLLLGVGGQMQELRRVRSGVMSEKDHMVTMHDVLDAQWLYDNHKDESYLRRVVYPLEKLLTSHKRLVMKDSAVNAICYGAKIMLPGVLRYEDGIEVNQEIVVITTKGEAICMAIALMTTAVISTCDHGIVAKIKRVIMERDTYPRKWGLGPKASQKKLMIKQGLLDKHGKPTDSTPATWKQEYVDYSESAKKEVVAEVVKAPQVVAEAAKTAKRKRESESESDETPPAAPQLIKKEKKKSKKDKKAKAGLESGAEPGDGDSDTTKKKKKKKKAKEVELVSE
T2 sequence (Q9NX24 whole entry partner): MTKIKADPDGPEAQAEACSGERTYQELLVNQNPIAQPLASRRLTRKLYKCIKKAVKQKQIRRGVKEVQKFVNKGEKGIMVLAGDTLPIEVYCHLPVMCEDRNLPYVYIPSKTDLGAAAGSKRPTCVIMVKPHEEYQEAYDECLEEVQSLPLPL
T2 sequence (Q9NPE3 whole entry partner): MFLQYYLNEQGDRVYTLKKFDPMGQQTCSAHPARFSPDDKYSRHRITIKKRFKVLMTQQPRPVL
T2 sequence (Q9NY12 whole entry partner): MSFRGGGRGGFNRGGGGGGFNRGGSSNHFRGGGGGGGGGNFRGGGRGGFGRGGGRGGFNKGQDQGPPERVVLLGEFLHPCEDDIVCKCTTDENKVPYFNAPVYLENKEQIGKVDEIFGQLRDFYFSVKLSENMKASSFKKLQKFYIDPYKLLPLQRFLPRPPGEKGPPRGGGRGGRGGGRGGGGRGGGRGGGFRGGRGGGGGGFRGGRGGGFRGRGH
T2 sequence (Q9BUR4 whole entry partner): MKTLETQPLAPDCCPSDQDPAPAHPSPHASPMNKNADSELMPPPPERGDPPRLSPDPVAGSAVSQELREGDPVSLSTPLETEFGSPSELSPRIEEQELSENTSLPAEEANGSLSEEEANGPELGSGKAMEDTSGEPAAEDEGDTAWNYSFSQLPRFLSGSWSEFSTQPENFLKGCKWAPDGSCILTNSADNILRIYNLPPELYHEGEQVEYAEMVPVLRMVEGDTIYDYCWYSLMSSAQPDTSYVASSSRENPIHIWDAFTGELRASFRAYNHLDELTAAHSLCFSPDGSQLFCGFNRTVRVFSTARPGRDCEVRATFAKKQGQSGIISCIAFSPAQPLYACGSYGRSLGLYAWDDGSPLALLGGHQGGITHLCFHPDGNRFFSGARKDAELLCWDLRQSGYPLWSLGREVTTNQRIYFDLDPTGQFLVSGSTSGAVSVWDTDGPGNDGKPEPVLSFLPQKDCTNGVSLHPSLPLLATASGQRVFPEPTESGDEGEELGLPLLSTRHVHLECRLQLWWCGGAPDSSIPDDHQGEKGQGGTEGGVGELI
T3 sequence (O14746 whole entry): as the sequence (O14746 whole entry) above
T3 sequence (O60832 whole entry partner): as the sequence (O60832 whole entry partner) above
T3 sequence (Q9NX24 whole entry partner): as the sequence (Q9NX24 whole entry partner) above
T3 sequence (Q9NPE3 whole entry partner): as the sequence (Q9NPE3 whole entry partner) above
T3 sequence (Q9NY12 whole entry partner): as the sequence (Q9NY12 whole entry partner) above
T3 sequence (Q9BUR4 whole entry partner): as the sequence (Q9BUR4 whole entry partner) above
T1 sequence (O14746 whole entry): as the sequence (O14746 whole entry) above
T1 sequence (O60832 whole entry partner): as the sequence (O60832 whole entry partner) above
T1 sequence (Q9NX24 whole entry partner): as the sequence (Q9NX24 whole entry partner) above
T1 sequence (Q9NPE3 whole entry partner): as the sequence (Q9NPE3 whole entry partner) above
T1 sequence (Q9NY12 whole entry partner): as the sequence (Q9NY12 whole entry partner) above
T1 sequence (Q9BUR4 whole entry partner): as the sequence (Q9BUR4 whole entry partner) above

N#C/C(=C\c1ccc2ccccc2c1)C(=O)Nc1sc2c(c1C#N)CCCC2 [Compound 36b, (2E)-2-Cyano-N-(3-cyano-4,5,6,7-tetrahydro-1-benzothiophen-2-yl)-3-(naphthalen-2-yl)prop-2-enamide]
% Telomerase Activity in Cancer Cells [1]: 18.1 ± 5.4% | % Telomerase Activity in Cancer Cells [2]: 54.4 ± 4.4% | % Telomerase Activity in Cancer Cells [3]: 25.1 ± 3.2% | Growth Percent (MOLT-4): 100.37% | Growth Percent (RPMI-8226): 99.85% | Growth Percent (SR): 95.72% | Growth Percent (EKVX): 92.47% | Growth Percent (HOP-62): 98.36% | Growth Percent (NCI-H23): 94.56% | Growth Percent (NCI-H522): 94.31% | Growth Percent (HCC-2998): 114.98% | Growth Percent (HT29): 112.60% | Growth Percent (SW-620): 103.69% | Growth Percent (SF-268): 104.45% | Growth Percent (M14): 94.57% | Growth Percent (SK-MEL-2): 100.31% | Growth Percent (SK-MEL-28): 102.31% | Growth Percent (SK-MEL-5): 97.65% | Growth Percent (UACC-62): 91.73% | Growth Percent (IGROV1): 103.06% | Growth Percent (OVCAR-3): 98.78% | Growth Percent (OVCAR-4): 100.16% | Growth Percent (NCI/ADR-RES): 99.44% | Growth Percent (SK-OV-3): 89.18% | Growth Percent (A498): 99.38% | Growth Percent (ACHN): 103.29% | Growth Percent (CAKI-1): 94.28% | Growth Percent (RXF 393): 111.16% | Growth Percent (SN12C): 100.72% | Growth Percent (TK-10): 113.35% | Growth Percent (UO-31): 81.95% | Growth Percent (MCF7): 92.41% | Growth Percent (T-47D): 97.26% | Growth Percent (MDA-MB-468): 90.36%
